According to US20020151876A1, “Devices and methods for management of bone density” (priority 2001, published 2002):

Columns and labels:
[1] = system: patients with Crohn's disease; settings: cited from earlier work
osteoblast-like cells = settings: cited from earlier work
patients = settings: long-term use; cited from earlier work
tumor burden in bone = settings: two separate studies, relatively small number of patients; cited from earlier work
rabbit model = test: local response to subcutaneous injection, skin reaction scoring (erythema, eschar, edema, necrosis); format: in vivo
Experimental: A test was performed to evaluate the local response to pamidronate sodium following subcutaneous injection into a rabbit model.
The pamidronate sodium was reconstituted with 10 mL of phosphate buffered saline (PBS) to achieve a concentration of 9 mg/mL. The 9 mg/mL. solution was then diluted to achieve a concentration of 0.9 mg/mL.
On the day of the test, the fur on the back of each animal was removed on both sides of the spinal column with electric clippers. A 0.1 mL portion of two concentrations of the sample solution was injected subcutaneously at each of three sites along the spinal column of each of two rabbits. A 0.1 mL portion of PBS was injected subcutaneously at three sites along the other side of the spinal column of the same two rabbits. […] Scoring was at 24 hours, 48 hours, and 72 hours. All of the animals were observed daily for signs of ill health.
The injection sites were examined and scored for any tissue reactions, with results scored according to Table 1.
The average erythema and edema scores for each test article and controls are determined at each scoring interval (24, 48, and 72 hours) for each rabbit.

## NCCCC(O)(P(=O)(O)O)P(=O)(O)O [alendronate]
[1]
  safety and tolerability: safe and well tolerated

## NC(=O)N1c2ccccc2C=Cc2ccccc21 [carbamazepine]
osteoblast-like cells
  proliferation of osteoblast-like cells: directly suppress proliferation
patients
  bone mass in patients: decrease bone mass

## O=P(O)(O)C(Cl)(Cl)P(=O)(O)O [clodronate]
Tumor burden in bone
  tumor burden in bone: decreases tumor burden in bone

## NCCC(O)(P(=O)(O)O)P(=O)(O)O [pamidronate sodium]
Rabbit model; any of the 0.9 mg/mL sites
  injection site reaction (in words): no evidence of erythema or edema
Rabbit model; one 9 mg/mL site on one rabbit, 48 and 72 hours
  injection site reaction (in words): Slight erythema
Rabbit model; one of the 9 mg/mL sites, 24 hours, both animals
  injection site reaction (in words): Slight erythema
Rabbit model; rabbits, throughout the test period (72 hours)
  signs of ill health, daily observation: remained healthy

## O=C1NC(=O)C(c2ccccc2)(c2ccccc2)N1 [phenytoin]
osteoblast-like cells
  proliferation of osteoblast-like cells: directly suppress proliferation
patients
  bone mass in patients: decrease bone mass
